Test results from article PMC7450990 (Journal of medicinal chemistry, 2019).

Columns and labels:
[1] = system: Hh pathway (endogenous Gli1 mRNA levels), ASZ-001 cells; experiment: cells; settings: Mus musculus, ASZ001, 48 h, read-out: IC50 (Hh pathway inhibition, Gli1 mRNA), ASZ-001 cells, 48 h incubation, Mean ± SEM
CYP3A4 = CYP3A4 (Homo sapiens, UniProt P08684); experiment: CYP3A4 inhibition
[2] = Parallel artificial membrane permeability assay; settings: hexadecane membrane
Metabolic stability = settings: human, microsomes
[3] = system: Hh pathway (endogenous Gli1 mRNA levels), ASZ-001 cells; settings: at the concentrations tested
P-glycoprotein (P-gp) = P-glycoprotein (P-gp) (Homo sapiens, UniProt P08183); experiment: Efflux pump substrate, P-gp; type: in vitro ADME
[4] = molecular target: T1, Breast Cancer Resistance Protein (BCRP) (Homo sapiens, UniProt Q9UNQ0); experiment: Efflux pump substrate, BCRP; type: in vitro ADME
T1 sequence (Q9UNQ0 1-655): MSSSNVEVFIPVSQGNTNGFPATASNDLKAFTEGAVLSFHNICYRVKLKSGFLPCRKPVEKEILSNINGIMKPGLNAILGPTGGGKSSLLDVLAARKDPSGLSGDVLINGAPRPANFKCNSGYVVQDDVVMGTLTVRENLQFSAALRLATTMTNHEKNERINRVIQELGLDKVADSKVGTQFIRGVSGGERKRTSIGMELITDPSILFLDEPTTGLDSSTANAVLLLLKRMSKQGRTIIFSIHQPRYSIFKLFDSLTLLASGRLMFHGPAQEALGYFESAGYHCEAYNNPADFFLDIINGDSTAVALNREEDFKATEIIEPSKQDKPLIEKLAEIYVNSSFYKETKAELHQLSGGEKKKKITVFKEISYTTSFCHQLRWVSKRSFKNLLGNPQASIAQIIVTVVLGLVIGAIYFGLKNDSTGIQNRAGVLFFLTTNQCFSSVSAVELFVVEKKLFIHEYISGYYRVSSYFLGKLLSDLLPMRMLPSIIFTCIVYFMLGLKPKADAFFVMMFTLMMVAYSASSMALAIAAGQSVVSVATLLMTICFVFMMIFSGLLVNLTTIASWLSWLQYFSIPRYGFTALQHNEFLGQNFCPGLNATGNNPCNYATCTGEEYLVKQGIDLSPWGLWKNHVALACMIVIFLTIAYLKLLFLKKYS

Sequence of CYP3A4 (P08684 whole entry): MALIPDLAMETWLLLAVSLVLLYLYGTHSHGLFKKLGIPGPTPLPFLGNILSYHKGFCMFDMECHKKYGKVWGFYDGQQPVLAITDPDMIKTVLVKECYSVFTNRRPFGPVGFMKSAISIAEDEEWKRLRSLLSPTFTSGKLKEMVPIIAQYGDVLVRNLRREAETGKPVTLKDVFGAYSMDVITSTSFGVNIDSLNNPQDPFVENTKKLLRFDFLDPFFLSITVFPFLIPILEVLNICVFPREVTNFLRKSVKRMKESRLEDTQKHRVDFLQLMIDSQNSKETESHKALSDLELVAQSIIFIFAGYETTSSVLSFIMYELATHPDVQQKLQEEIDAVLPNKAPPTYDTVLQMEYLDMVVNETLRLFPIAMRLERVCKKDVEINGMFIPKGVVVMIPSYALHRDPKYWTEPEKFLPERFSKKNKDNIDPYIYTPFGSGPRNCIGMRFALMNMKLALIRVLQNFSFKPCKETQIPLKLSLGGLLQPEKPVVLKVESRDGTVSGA
Sequence of P-glycoprotein (P-gp) (P08183 whole entry): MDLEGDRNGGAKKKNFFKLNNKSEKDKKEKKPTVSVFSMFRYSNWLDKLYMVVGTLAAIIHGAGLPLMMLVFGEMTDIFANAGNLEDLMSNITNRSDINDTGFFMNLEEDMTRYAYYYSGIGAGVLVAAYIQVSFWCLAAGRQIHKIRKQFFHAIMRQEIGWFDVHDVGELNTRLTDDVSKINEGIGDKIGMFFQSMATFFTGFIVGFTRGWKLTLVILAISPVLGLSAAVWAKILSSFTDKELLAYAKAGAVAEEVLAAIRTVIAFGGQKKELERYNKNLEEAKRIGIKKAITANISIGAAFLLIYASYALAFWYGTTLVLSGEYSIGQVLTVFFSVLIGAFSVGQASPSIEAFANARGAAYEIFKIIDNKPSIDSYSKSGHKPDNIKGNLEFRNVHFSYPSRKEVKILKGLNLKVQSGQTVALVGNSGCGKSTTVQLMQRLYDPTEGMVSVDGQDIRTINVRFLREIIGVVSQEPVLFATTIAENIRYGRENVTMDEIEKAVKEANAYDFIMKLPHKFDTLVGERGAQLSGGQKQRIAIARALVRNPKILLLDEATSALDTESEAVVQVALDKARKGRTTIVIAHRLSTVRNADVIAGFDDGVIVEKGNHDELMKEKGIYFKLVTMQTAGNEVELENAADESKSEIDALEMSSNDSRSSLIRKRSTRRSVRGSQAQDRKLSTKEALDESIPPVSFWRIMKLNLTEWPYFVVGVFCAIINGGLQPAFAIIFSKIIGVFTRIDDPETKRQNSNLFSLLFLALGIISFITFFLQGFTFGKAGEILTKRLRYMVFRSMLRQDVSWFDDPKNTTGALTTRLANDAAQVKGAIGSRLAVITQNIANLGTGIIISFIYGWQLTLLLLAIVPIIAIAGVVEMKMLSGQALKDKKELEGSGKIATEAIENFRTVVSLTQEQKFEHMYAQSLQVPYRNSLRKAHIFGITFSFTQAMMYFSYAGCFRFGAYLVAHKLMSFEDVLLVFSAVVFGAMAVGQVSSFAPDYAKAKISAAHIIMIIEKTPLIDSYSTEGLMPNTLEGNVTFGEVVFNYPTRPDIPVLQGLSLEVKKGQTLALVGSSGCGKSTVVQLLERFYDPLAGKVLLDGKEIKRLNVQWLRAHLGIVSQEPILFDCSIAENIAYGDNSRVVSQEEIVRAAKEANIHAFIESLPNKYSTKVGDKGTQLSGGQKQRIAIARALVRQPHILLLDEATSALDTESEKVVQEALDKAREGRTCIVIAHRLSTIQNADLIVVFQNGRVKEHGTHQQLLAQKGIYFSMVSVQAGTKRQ

C[C@@]1(c2ccc(Cl)cc2Cl)OC[C@@H](COc2ccc(N3CCN(c4ccc(NC(=O)c5ccccc5)cc4)CC3)cc2)O1 [Compound 10, N-(4-(4-(4-(((2R,4R)-2-(2,4-dichlorophenyl)-2-methyl-1,3-dioxolan-4-yl)methoxy)phenyl)piperazin-1-yl)phenyl)benzamide]
IC50 [1]: > 10 µM

CC[C@@H](C)n1ncn(-c2ccc(N3CCN(c4ccc(OC[C@@H]5CO[C@@](C)(c6ccc(Cl)cc6Cl)O5)cc4)CC3)cc2)c1=O [Compound 2b]
IC50 (CYP3A4): 1.02 µM
PAMPA -log Pe [2]: 9.0

C[C@@]1(c2ccc(Cl)cc2Cl)OC[C@@H](COc2ccc(N3CCN(c4ccc(NC(=O)c5ccc6ccccc6c5)cc4)CC3)cc2)O1 [Compound 11, N-(4-(4-(4-(((2R,4R)-2-(2,4-dichlorophenyl)-2-methyl-1,3-dioxolan-4-yl)methoxy)phenyl)piperazin-1-yl)phenyl)-2-naphthamide]
IC50 [1]: > 10 µM

C[C@]1(c2ccc(Cl)cc2Cl)OC[C@@H](COc2ccc(N3CCN(c4ccc(NC(=O)c5ccccc5)cc4)CC3)cc2)O1 [Compound 15, N-(4-(4-(4-(((2S,4R)-2-(2,4-dichlorophenyl)-2-methyl-1,3-dioxolan-4-yl)methoxy)phenyl)piperazin-1-yl)phenyl)benzamide]
IC50 [1]: > 10 µM

C[C@@]1(c2ccc(Cl)cc2Cl)OC[C@@H](COc2ccc(N3CCN(c4ccc(NC(=O)c5cccnc5)cc4)CC3)cc2)O1 [Compound 13, N-(4-(4-(4-(((2R,4R)-2-(2,4-dichlorophenyl)-2-methyl-1,3-dioxolan-4-yl)methoxy)phenyl)piperazin-1-yl)phenyl)nicotinamide]
IC50 (CYP3A4): > 30 µM
PAMPA -log Pe [2]: 7.9 ± 0.03

C[C@]1(c2ccc(Cl)cc2Cl)OC[C@@H](COc2ccc(N3CCN(c4ccc(NC(=O)c5cccnc5)cc4)CC3)cc2)O1 [Compound 18, N-(4-(4-(4-(((2S,4R)-2-(2,4-dichlorophenyl)-2-methyl-1,3-dioxolan-4-yl)methoxy)phenyl)piperazin-1-yl)phenyl)nicotinamide]
IC50 (CYP3A4): > 20 µM

C[C@@]1(c2ccc(Cl)cc2Cl)OC[C@@H](COc2ccc(N3CCN(c4ccc(NC(=O)c5cccc(O)c5)cc4)CC3)cc2)O1 [Compound 27, N-(4-(4-(4-(((2R,4R)-2-(2,4-dichlorophenyl)-2-methyl-1,3-dioxolan-4-yl)methoxy)phenyl)piperazin-1-yl)phenyl)-3-hydroxybenzamide]
IC50 (CYP3A4): > 30 µM
microsomal CLint (Metabolic stability): < 3 µL/min/mg

C[C@@]1(c2ccc(Cl)cc2Cl)OC[C@@H](COc2ccc(N3CCN(c4ccc(NC(=O)c5ccncc5)cc4)CC3)cc2)O1 [Compound 14, N-(4-(4-(4-(((2R,4R)-2-(2,4-dichlorophenyl)-2-methyl-1,3-dioxolan-4-yl)methoxy)phenyl)piperazin-1-yl)phenyl)isonicotinamide]
IC50 [1]: > 10 µM

CC[C@@H](C)n1ncn(-c2ccc(N3CCN(c4ccc(OC[C@@H]5CO[C@](C)(c6ccc(Cl)cc6Cl)O5)cc4)CC3)cc2)c1=O [Compound 2a]
IC50 (CYP3A4): > 20 µM

C[C@]1(c2ccc(Cl)cc2Cl)OC[C@@H](COc2ccc(N3CCN(c4ccc(NC(=O)c5ccsc5)cc4)CC3)cc2)O1 [Compound 36, N-(4-(4-(4-(((2S,4R)-2-(2,4-dichlorophenyl)-2-methyl-1,3-dioxolan-4-yl)methoxy)phenyl)piperazin-1-yl)phenyl)thiophene-3-carboxamide]
Hh pathway inhibition, result in words [3]: inactive

C[C@]1(c2ccc(Cl)cc2Cl)OC[C@@H](COc2ccc(N3CCN(c4ccc(NC(=O)c5ccc6ccccc6c5)cc4)CC3)cc2)O1 [Compound 16, N-(4-(4-(4-(((2S,4R)-2-(2,4-dichlorophenyl)-2-methyl-1,3-dioxolan-4-yl)methoxy)phenyl)piperazin-1-yl)phenyl)-2-naphthamide]
IC50 [1]: > 10 µM

CCC(C)n1ncn(-c2ccc(N3CCN(c4ccc(OCC5COC(Cn6cncn6)(c6ccc(Cl)cc6Cl)O5)cc4)CC3)cc2)c1=O (stereo not shown) [ITZ, Itraconazole]
Efflux Pump Substrates, P-gp (P-glycoprotein (P-gp)): not a substrate
Efflux Pump Substrates, BCRP [4]: not a substrate
half-life (Metabolic stability): 27 ± 6.2 min

C[C@]1(c2ccc(Cl)cc2Cl)OC[C@@H](COc2ccc(N3CCN(c4ccc(NC(=O)c5ccoc5)cc4)CC3)cc2)O1 [Compound 35, N-(4-(4-(4-(((2S,4R)-2-(2,4-dichlorophenyl)-2-methyl-1,3-dioxolan-4-yl)methoxy)phenyl)piperazin-1-yl)phenyl)furan-3-carboxamide]
Hh pathway inhibition, result in words [3]: inactive

C[C@]1(c2ccc(Cl)cc2Cl)OC[C@@H](COc2ccc(N3CCN(c4ccc(NC(=O)c5ccncc5)cc4)CC3)cc2)O1 [Compound 19, N-(4-(4-(4-(((2S,4R)-2-(2,4-dichlorophenyl)-2-methyl-1,3-dioxolan-4-yl)methoxy)phenyl)piperazin-1-yl)phenyl)isonicotinamide]
IC50 [1]: > 10 µM
